Tests used:
[1] = type: in vivo, chicken; settings: paraquat-treated chickens, 110 μg/mL in water supply D7 to D14
Source text: (§1) All experimental procedures used in the current study were approved by the Ethics and Research Committee of the institution conducting the study. A total of 144 one-day-old Ross 308 male broiler chicks, with an average body weight (BW) of 39 g, were reared from D1 to D21. They were allocated in 72 battery cages (0.5×0.42 m^2) with wire floors (6 chicks/cage) in environmentally controlled rooms. The birds were randomly assigned to treatment pens with similar starting weights. Each cage was equipped with one trough feeder and one drinker. Birds had ad libitum access to mash feeds and water during all study. Average temperature was 33° C. at placement, being reduced by 1° C. every 2 days until 23° C. to provide comfort throughout the study. The lighting program was 18 hours light and 6 hours dark during each 24 hours period throughout the trial.
The experimental design was a completely randomized factorial design, consisting of a placebo or oxidative stress groups thus two experimental treatments, and 12 replicates per treatment with 6 birds for each replicate. The oxidative stress was applied only from D7 to D14, through the supplementation of a xenobiotic, i.e. paraquat dichloride hydrate (Sigma-Aldrich Company Ltd., Dorset, UK), through the water supply system at the dose of 110 μg/mL. […] Body weight (BW) was recorded on D1, D7, D14 and D21. […]

[2] = system: Ross 308 male broiler chicks; test: Stress, non-adaptation and adaptation scores from gene signatures (RT-qPCR) in the chicken-paraquat model; type: in vivo
Source text: as §1
The experimental design was a completely randomized factorial design, consisting of a placebo or oxidative stress groups thus two experimental treatments, and 12 replicates per treatment with 6 birds for each replicate. The oxidative stress was applied only from D7 to D14, through the supplementation of a xenobiotic, i.e. paraquat dichloride hydrate (Sigma-Aldrich Company Ltd., Dorset, UK), through the water supply system at the dose of 110 μg/mL. This dosage was achieved by using water containers, individually located in each cage. The control group received standard water (placebo) on the same period using similar containers. A starter and grower diets were provided from D1 to D7, and D8 to D21, respectively. The basal diets were standard wheat/corn-soy-based broiler diets, and were formulated to meet or exceed the nutrient requirements of broilers, as recommended by the NRC (1994). Body weight (BW) was recorded on D1, D7, D14 and D21. On D14 and D21, one bird per pen replicate of each treatment was sacrificed for tissue collection. Briefly, 100 mg of tissue (breast, liver and ileum) were immerged in 2-mL Eppendorf tubes containing 1 mL RNAlater® (Sigma-Aldrich), and kept at −20° C. until analysis. RNA extraction and purification was conducted as described in Example 1.
To remove traces of contaminant genomic DNA, 2.5 μg of total RNA was treated with 2.5 U of DNasel (ThermoFischer) in a final volume of […] for 15 min at 25° C. Next, DNase was inhibited by addition of EDTA to a final concentration of 8 mM and incubated for 10 min at 70° C. Half of the DNase-treated RNA sample was reverse transcribed (RT), the other half was kept as no-RT control. RNA was denatured in a total volume of 17.6 μL containing 1.25 μg total RNA, 5 mM of nonanucleotide random primer (dN9) and 0.5 μM each dNTPs (Thermofischer). This mix was heated to 70° C. for 5 min in a thermocycler (SimpliAmp™, Life Technologies). Then, RT-AMV buffer (Life Sciences Advance Technology) was added together with 40 U RNAsine (Promega) and 0.25 U AMV Reverse Transcriptase (RT) (Life Sciences Advance Technology), and the volume was adjusted to 21.6 μL. Primers were hybridized by incubation at 25° C. for 15 min, and extension was conducted for 2 hours at 45° C. in thermocycler. No-RT controls were treated in parallel, but addition of AMV-RT enzyme was omitted.
For the quantitative PCR reaction, 1 μL of cDNA sample diluted to ⅓ was mixed to 2 μL specific primers mix 2.5 mM each and 5 μL of 2× Takyon sybrgreen—No ROX (Eurogentec) in a final volume of 10 μL. Each PCR reaction was set in triplicate. Amplification was conducted on a LC480 LightCycler® Nano (Roche) using 384 well plates and the following program: 1 initial activation cycle at 95° C. for 3 min, then 45 cycles [95° C. for 10 sec; 60° C. for 15 sec; 72° C. for 15 sec]. Specificity of each amplification was monitored by fusion curve technic detecting a single peak corresponding to one single amplicon, consisting in an initial denaturation at 95° C. for 5 sec, followed by ramping from 55 to 95° C. at 0.11° C./sec, and 5 acquisitions per sec. […]

[3] = 4 most conserved genes signature
[4] = twenty-six genes or four most conserved genes signature, FIG. 5, bottom

C[n+]1ccc(-c2cc[n+](C)cc2)cc1 [paraquat, paraquat dichloride hydrate]
body weight change [1]: weight-loss | Adaptation Score (%) ([2]; 4-gene signatures, mean ± SD): 0.0 ± 0.0% | Non-adaptation Score (%) ([2]; 4-gene signatures, mean ± SD): 78.2 ± 29.5% | Stress Score (%) ([2]; 4-gene signatures, mean ± SD): 69.2 ± 21.6% | Adaptation Score (%) [2, 3]: 0% | Non-adaptation Score (%) [2, 3]: 100% | Stress Score (%) ([2]; 4 most conserved genes signature (Anxa1, Anxa2, Chac1, Postn)): 75% | Adaptation Score (%) ([2]; 5-gene signatures, mean ± SD): 0.0 ± 0.0% | Non-adaptation Score (%) ([2]; 5-gene signatures, mean ± SD): 79.4 ± 24.8% | Stress Score (%) ([2]; 5-gene signatures, mean ± SD): 69.2 ± 18.9% | Adaptation Score (%) ([2]; 6-gene signatures, mean ± SD): 0.0 ± 0.0% | Non-adaptation Score (%) ([2]; 6-gene signatures, mean ± SD): 79.8 ± 21.5% | Stress Score (%) ([2]; 6-gene signatures, mean ± SD): 69.2 ± 16.8% | Adaptation Score (%) ([2]; 7-gene signatures, mean ± SD): 0.0 ± 0.0% | Non-adaptation Score (%) ([2]; 7-gene signatures, mean ± SD): 79.9 ± 19.0% | Stress Score (%) ([2]; 7-gene signatures, mean ± SD): 69.2 ± 15.2% | Adaptation Score (%) ([2]; 8-gene signatures, mean ± SD): 0.0 ± 0.0% | Non-adaptation Score (%) ([2]; 8-gene signatures, mean ± SD): 80.0 ± 17.0% | Stress Score (%) ([2]; 8-gene signatures, mean ± SD): 69.2 ± 13.8% | Adaptation Score (%) ([2]; 9-gene signatures, mean ± SD): 0.0 ± 0.0% | Non-adaptation Score (%) ([2]; 9-gene signatures, mean ± SD): 80.0 ± 15.4% | Stress Score (%) ([2]; 9-gene signatures, mean ± SD): 69.2 ± 12.7% | Adaptation Score (%) ([2]; 10-gene signatures, mean ± SD): 0.0 ± 0.0% | Non-adaptation Score (%) ([2]; 10-gene signatures, mean ± SD): 80.0 ± 14.1% | Stress Score (%) ([2]; 10-gene signatures, mean ± SD): 69.2 ± 11.7% | Adaptation Score (%) ([2]; 11-gene signatures, mean ± SD): 0.0 ± 0.0% | Non-adaptation Score (%) ([2]; 11-gene signatures, mean ± SD): 80.0 ± 13.0% | Stress Score (%) ([2]; 11-gene signatures, mean ± SD): 69.2 ± 10.8% | Adaptation Score (%) ([2]; 12-gene signatures, mean ± SD): 0.0 ± 0.0% | Non-adaptation Score (%) ([2]; 12-gene signatures, mean ± SD): 80.0 ± 12.0% | Stress Score (%) ([2]; 12-gene signatures, mean ± SD): 69.2 ± 10.0% | Adaptation Score (%) ([2]; 13-gene signatures, mean ± SD): 0.0 ± 0.0% | Non-adaptation Score (%) ([2]; 13-gene signatures, mean ± SD): 80.0 ± 11.0% | Stress Score (%) ([2]; 13-gene signatures, mean ± SD): 69.2 ± 9.2% | Adaptation Score (%) ([2]; 14-gene signatures, mean ± SD): 0.0 ± 0.0% | Non-adaptation Score (%) ([2]; 14-gene signatures, mean ± SD): 80.0 ± 10.2% | Stress Score (%) ([2]; 14-gene signatures, mean ± SD): 69.2 ± 8.5% | Adaptation Score (%) ([2]; 15-gene signatures, mean ± SD): 0.0 ± 0.0% | Non-adaptation Score (%) ([2]; 15-gene signatures, mean ± SD): 80.0 ± 9.4% | Stress Score (%) ([2]; 15-gene signatures, mean ± SD): 69.2 ± 7.9% | Adaptation Score (%) ([2]; 16-gene signatures, mean ± SD): 0.0 ± 0.0% | Non-adaptation Score (%) ([2]; 16-gene signatures, mean ± SD): 80.0 ± 8.7% | Stress Score (%) ([2]; 16-gene signatures, mean ± SD): 69.2 ± 7.3% | Adaptation Score (%) ([2]; 17-gene signatures, mean ± SD): 0.0 ± 0.0% | Non-adaptation Score (%) ([2]; 17-gene signatures, mean ± SD): 80.0 ± 7.9% | Stress Score (%) ([2]; 17-gene signatures, mean ± SD): 69.2 ± 6.7% | Adaptation Score (%) ([2]; 18-gene signatures, mean ± SD): 0.0 ± 0.0% | Non-adaptation Score (%) ([2]; 18-gene signatures, mean ± SD): 80.0 ± 7.3% | Stress Score (%) ([2]; 18-gene signatures, mean ± SD): 69.2 ± 6.2% | Adaptation Score (%) ([2]; 19-gene signatures, mean ± SD): 0.0 ± 0.0% | Non-adaptation Score (%) ([2]; 19-gene signatures, mean ± SD): 80.0 ± 6.6% | Stress Score (%) ([2]; 19-gene signatures, mean ± SD): 69.2 ± 5.6% | Adaptation Score (%) ([2]; 20-gene signatures, mean ± SD): 0.0 ± 0.0% | Non-adaptation Score (%) ([2]; 20-gene signatures, mean ± SD): 80.0 ± 6.0% | Stress Score (%) ([2]; 20-gene signatures, mean ± SD): 69.2 ± 5.0% | Adaptation Score (%) ([2]; 21-gene signatures, mean ± SD): 0.0 ± 0.0% | Non-adaptation Score (%) ([2]; 21-gene signatures, mean ± SD): 80.0 ± 5.3% | Stress Score (%) ([2]; 21-gene signatures, mean ± SD): 69.2 ± 4.5% | Adaptation Score (%) ([2]; 22-gene signatures, mean ± SD): 0.0 ± 0.0% | Non-adaptation Score (%) ([2]; 22-gene signatures, mean ± SD): 80.0 ± 4.6% | Stress Score (%) ([2]; 22-gene signatures, mean ± SD): 69.2 ± 3.9% | Adaptation Score (%) ([2]; 23-gene signatures, mean ± SD): 0.0 ± 0.0% | Non-adaptation Score (%) ([2]; 23-gene signatures, mean ± SD): 80.0 ± 3.9% | Stress Score (%) ([2]; 23-gene signatures, mean ± SD): 69.2 ± 3.3% | Adaptation Score (%) ([2]; 24-gene signatures, mean ± SD): 0.0 ± 0.0% | Non-adaptation Score (%) ([2]; 24-gene signatures, mean ± SD): 80.0 ± 3.1% | Stress Score (%) ([2]; 24-gene signatures, mean ± SD): 69.2 ± 2.7% | Adaptation Score (%) ([2]; 25-gene signatures, mean ± SD): 0.0 ± 0.0% | Non-adaptation Score (%) ([2]; 25-gene signatures, mean ± SD): 80.0 ± 2.2% | Stress Score (%) ([2]; 25-gene signatures, mean ± SD): 69.2 ± 1.8% | Adaptation Score (%) ([2]; 26-gene signature, mean ± SD): 0.0 ± 0.0% | Non-adaptation Score (%) ([2]; 26-gene signature, mean ± SD): 80.0 ± 0.0% | Stress Score (%) ([2]; 26-gene signature, mean ± SD): 69.2 ± 0.0% | non-adaptation (NA) score [2, 4]: high | stress (S) score [2, 4]: high

Source: patent publication US12624395B2, “Process for identifying a stress state and/or for assessing the stress response level in a subject” (ADISSEO FRANCE S.A.S., priority 2019, dated 2026)
